Data reported in US12630510B2, “EP2 antagonist” (ONO PHARMACEUTICAL CO., LTD., priority 2019, dated 2026).

target: T1, human EP2 receptor (Homo sapiens, UniProt P43116); test: Experiment of measuring EP2 antagonistic activity using cells expressing prostanoid receptor (cAMP); format: cell-based; conditions: CHO cells expressing human EP2 receptor; PGE2 10 nmol/L; cAMP quantified after 1 hour at room temperature; read-out: EP2_IC50
T1 construct: expressed in transfected cells; host or cells: CHO cells
T1 sequence (P43116 whole entry): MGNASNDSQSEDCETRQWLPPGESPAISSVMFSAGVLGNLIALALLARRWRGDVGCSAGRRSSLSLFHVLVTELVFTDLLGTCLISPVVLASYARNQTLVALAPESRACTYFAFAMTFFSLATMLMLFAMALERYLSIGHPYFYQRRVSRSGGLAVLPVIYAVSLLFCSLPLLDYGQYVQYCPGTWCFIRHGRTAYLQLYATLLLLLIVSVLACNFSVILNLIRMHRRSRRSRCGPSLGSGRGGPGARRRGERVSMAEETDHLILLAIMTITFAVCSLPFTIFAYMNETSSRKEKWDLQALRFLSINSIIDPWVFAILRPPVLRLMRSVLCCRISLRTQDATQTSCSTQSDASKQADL
Description: CHO cells on each of which a human EP2 receptor had been expressed were prepared in accordance with the method by Nishigaki et al, (FEBS Letters, vol. 364, pp. 339-341, 1995) and were then cryopreserved in CELLBANKER2 (Nippon Zenyaku Kogyo Co., Ltd.) at a concentration of 1.5×10^7 cells/mL/vial. The CHO cells thus prepared were used in the experiment. The cells were thawed, and were then suspended in an assay medium (D-PBS containing 1 mmol/L IBMX, 2 μmol/L Diclofenac) at a concentration of 5×10^5 cells/mL. PGE2 alone having a final concentration of 10 nmol/L or a solution (10 μL) containing the PGE2 and a test compound was added to the cell suspension (10 μL) to initiate the reaction. After the reaction was performed at room temperature for 1 hour, the amount of cAMP in the cells was quantified in accordance with the method described in cAMP Gs Dynamic kit (CISBIO).
The antagonistic activity (IC50 value) of a test compound was calculated as a percentage of suppression of the reaction at 10 nM, which was a concentration at which a submaximal cAMP production activity was observed when PGE2 alone was employed. In this manner, an IC50 value was determined.

Compared with `CC(C)n1c(CCCc2ccccc2)ccc1C(=O)Nc1cc([C@@H]2C[C@H]2C(=O)O)ccc1C(F)(F)F` [Example 3-2, (1R,2R)-2-[3-({[1-Isopropyl-5-(3-phenylpropyl)-1H-pyrrol-2-yl]carbonyl}amino)-4-(trifluoromethyl)phenyl]cyclopropanecarboxylic acid], `CC(C)n1c(CCCc2ccccc2)ccc1C(=O)Nc1cc([C@@H]2C[C@@H]2C(=O)O)ccc1C(F)(F)F` [Example 3-1, (1S,2R)-2-[3-({[1-Isopropyl-5-(3-phenylpropyl)-1H-pyrrol-2-yl]carbonyl}amino)-4-(trifluoromethyl)phenyl]cyclopropanecarboxylic acid] is 37-fold lower in IC50: 77 nM for the first, 2.1 nM for the second. The second is the more potent here.

Going from `Cc1cc(OCCc2ccccc2)cc(C)c1C(=O)Nc1cc([C@H]2CC[C@H]2C(=O)O)ccc1C(F)(F)F` [Example 25, (1R,2S)-2-[3-{[2,6-Dimethyl-4-(2-phenylethoxy)benzoyl]amino}-4-(trifluoromethyl)phenyl]cyclobutanecarboxylic acid] to `Cc1cc(OCCc2ccccc2)cc(C)c1C(=O)Nc1cc([C@H]2C[C@H]2C(=O)O)ccc1C(F)(F)F` [Example 18, (1R,2S)-2-[3-{[2,6-Dimethyl-4-(2-phenylethoxy)benzoyl]amino}-4-(trifluoromethyl)phenyl]cyclopropanecarboxylic acid], the IC50 falls from 2.2 nM to 0.9 nM (2.4-fold).

`Cc1cc(OCCc2ccccc2)cc(C)c1C(=S)Nc1cc([C@H]2C[C@H]2C(=O)O)ccc1C(F)(F)F` [Example 32, (1R,2S)-2-[3-({[2,6-Dimethyl-4-(2-phenylethoxy)phenyl]carbonothioyl}amino)-4-(trifluoromethyl)phenyl]cyclopropanecarboxylic acid] and `Cc1cc(OCCc2ccccc2)cc(C)c1C(=O)Nc1cc([C@@H]2C[C@@H]2C(=O)O)ccc1C(F)(F)F` [Example 19, (1S,2R)-2-[3-{[2,6-Dimethyl-4-(2-phenylethoxy)benzoyl]amino}-4-(trifluoromethyl)phenyl]cyclopropanecarboxylic acid] are within 1.5-fold of each other in IC50: 13 nM for the first, 12 nM for the second.

Going from `CC(C)c1c(OCc2ccccc2)cccc1C(=O)Nc1cc([C@H]2C[C@H]2C(=O)O)ccc1C(F)(F)F` [Example 29-1, (1R,2S)-2-[3-{[3-(Benzyloxy)-2-isopropylbenzoyl]amino}-4-(trifluoromethyl)phenyl]cyclopropanecarboxylic acid] to `CC(C)c1c(C(=O)Nc2cc([C@H]3C[C@H]3C(=O)O)ccc2C(F)(F)F)cnn1CCCc1ccccc1` [Example 31-2, (1R,2S)-2-[3-({[5-Isopropyl-1-(3-phenylpropyl)-1H-pyrazol-4-yl]carbonyl}amino)-4-(trifluoromethyl)phenyl]cyclopropanecarboxylic acid], the IC50 falls from 11 nM to 1.3 nM (8.5-fold). The second is the more potent here.

First: Cc1cc(OCCc2ccccc2)cc(C)c1C(=O)Nc1cc(CC(C)C(=O)O)ccc1C(F)(F)F (stereo not drawn) [Example 24-2, 3-[3-f{[2,6-Dimethyl-4-(2-phenylethoxy)benzoyl]amino}-4-(trifluoromethyl)phenyl]-2-methylpropanoic acid]
Second: CC[C@H](C)n1c(CCCc2ccccc2)ccc1C(=O)Nc1cc([C@@H]2C[C@@H]2C(=O)O)ccc1C(F)(F)F [Example 5, (1S,2R)-2-{3-[({1-[(2S)-2-Butanyl]-5-(3-phenylpropyl)-1H-pyrrol-2-yl}carbonyl)amino]-4-(trifluoromethyl)phenyl}cyclopropanecarboxylic acid]
The IC50 of the first is 4.8-fold higher: 12 nM for the first, 2.5 nM for the second. The second is the more potent here.

In the case of `CCC(C)c1c(C(=O)Nc2cc([C@H]3C[C@H]3C(=O)O)ccc2C(F)(F)F)ccn1CCCc1ccccc1` (stereo partly drawn) [Example 34, (1R,2S)-2-[3-({[2-sec-Butyl-1-(3-phenylpropyl)-1H-pyrrol-3-yl]carbonyl}amino)-4-(trifluoromethyl)phenyl]cyclopropanecarboxylic acid], the IC50 is reported as < 0.3 nM.

system: mouse colorectal cancer cell line CT26; test: Anti-tumor effect in allogenic transplantation model of mouse colorectal cancer cell line CT26; format: in vivo; conditions: female Balb/C mice, CT26 subcutaneous; 10 mg/kg per single dose, once on day-4, twice per day day-5 to day-25
Description: The anti-tumor effect of the compound of the present invention was evaluated in an allogenic transplantation model of CT26 that was a mouse colorectal cancer cell line. CT26 was cultured in a RPMI-1640 medium supplemented with 10 vol % of heat-inactivated fetal bovine serum (FBS), 100 units/mL of penicillin and 100 μg/mL of streptomycin in a CO2 incubator. On the day of transplantation, a culture supernatant was removed, CT26 was washed with a phosphate buffered saline (also abbreviated as “PBS”, hereinafter) and was then collected. The collected CT26 was suspended in PBS and was used as cells for transplantation. 300,000 cells for the transplantation were transplanted subcutaneously into female Balb/C mice (Charles River Laboratories Japan) on the right back. Four days after the transplantation, the mice were divided into two groups, i.e., a medium group and a compound A group, each including 10 cases. […] With respect to a tumor volume (mm^3), a shorter diameter and a longer diameter of a tumor were measured with an electronic caliper, and the tumor volume was calculated in accordance with mathematical formula 1 shown below. […]

For `Cc1cc(OCCc2ccccc2)cc(C)c1C(=O)Nc1cc([C@H]2C[C@H]2C(=O)O)ccc1C(F)(F)F` [Example 18, (1R,2S)-2-[3-{[2,6-Dimethyl-4-(2-phenylethoxy)benzoyl]amino}-4-(trifluoromethyl)phenyl]cyclopropanecarboxylic acid], the “tumor volumes on day-25 of the transplantation compared with medium-administered group” value was “significantly smaller”.
